Experimental data as given in publication PMC10600881 (ACS Omega, 2023).
≈ marks a conversion by molar mass, not a printed value. Read-outs that look alike come from different tables or passages of the source.

How the values were obtained:
E. coli (ATCC25922) = test: Broth microdilution assay, MIC; assay type: cell-based; details: Escherichia coli, ATCC25922, read-out: Minimum Inhibitory Concentration
B. subtilis (ATCC 9372) = test: Broth microdilution assay, MIC; assay type: cell-based; details: Bacillus subtilis, ATCC9372, read-out: Minimum Inhibitory Concentration
S. aureus (ATCC 25923) = test: Broth microdilution assay, MIC; assay type: cell-based; details: Staphylococcus aureus, ATCC25923, read-out: Minimum Inhibitory Concentration
[1] = test system: P. aeruginosa (ATCC 29853); test: Broth microdilution assay, MIC/MBC; assay type: cell-based; details: for MBC / MIC: Pseudomonas aeruginosa; for fold more efficient than amoxicillin: from MICs
[2] = test system: M. tuberculosis (RCMB 010126); test: Microplate alamar blue assay; assay type: cell-based, Mycobacterium tuberculosis; details: Mycobacterium tuberculosis, RCMB010126, sensitive Mycobacterium tuberculosis (RCMB 010126), MABA
C. albicans (ATCC 10231) = test: Broth microdilution assay, antifungal MIC/MFC; assay type: cell-based, Candida albicans; details: for ratio (MFC/MIC): C. albicans (ATCC 10231); for MFC / MIC: Candida albicans; for fungicidal or fungistatic behavior: C. albicans, MFC/MIC > 4 = fungistatic
[3] = ATCC29853, read-out: Minimum Inhibitory Concentration
[4] = ATCC10231, read-out: Minimum Inhibitory Concentration

SMILES: COc1ccc(OC)c(C2CC(c3cccs3)=NN2C(N)=S)c1 (stereo not shown) [2b, 4,5-Dihydro-5-(2,5-dimethoxyphenyl)-3-(thiophen-2-yl)pyrazole-1-carbothioamide]
- MIC (E. coli (ATCC25922)): 62.5 µg/mL (≈ 180 µM)
- MIC (B. subtilis (ATCC 9372)): 125 µg/mL (≈ 360 µM)
- MIC (S. aureus (ATCC 25923)): 250 µg/mL (≈ 719 µM)
- ratio (MBC/MIC) ([1]; P. aeruginosa (ATCC 29853)): 8
- MBC ([1]; ATCC29853): 500 µg/mL (≈ 1440 µM)
- MIC ([1]; ATCC29853): 62.2 µg/mL (≈ 179 µM)
- MIC [1, 3]: 62.2 µg/mL (≈ 179 µM)
- MIC [2]: 15.6 µg/mL (≈ 44.9 µM)
- ratio (MFC/MIC) (C. albicans (ATCC 10231)): 4
- MFC (C. albicans (ATCC 10231); ATCC10231): 250 µg/mL (≈ 719 µM)
- MIC (C. albicans (ATCC 10231); ATCC10231): 62.5 µg/mL (≈ 180 µM)
- MIC (C. albicans (ATCC 10231); [4]): 62.5 µg/mL (≈ 180 µM)

SMILES: Cc1csc(N2N=C(c3cccs3)CC2c2cccs2)n1 (stereo not shown) [3a, 4,5-Dihydro-1-(4-methylthiazol-2-yl)-3,5-di(thiophen-2-yl)-1H-pyrazole]
- MIC (E. coli (ATCC25922)): 500 µg/mL (≈ 1510 µM)
- MIC (B. subtilis (ATCC 9372)): 62.5 µg/mL (≈ 189 µM)
- MIC (S. aureus (ATCC 25923)): 250 µg/mL (≈ 754 µM)
- ratio (MBC/MIC) ([1]; P. aeruginosa (ATCC 29853)): >1
- MBC ([1]; ATCC29853): > 500 µg/mL
- MIC ([1]; ATCC29853): > 500 µg/mL
- MIC [1, 3]: > 500 µg/mL
- MIC [2]: 62.5 µg/mL (≈ 189 µM)
- ratio (MFC/MIC) (C. albicans (ATCC 10231)): >4
- fungicidal or fungistatic behavior (C. albicans (ATCC 10231)): fungistatic
- MFC (C. albicans (ATCC 10231); ATCC10231): > 500 µg/mL
- MIC (C. albicans (ATCC 10231); ATCC10231): 125 µg/mL (≈ 377 µM)
- MIC (C. albicans (ATCC 10231); [4]): 125 µg/mL (≈ 377 µM)

SMILES: COc1ccc(OC)c(C2CC(c3cccs3)=NN2c2nc(C)cs2)c1 (stereo not shown) [3b, 4,5-Dihydro-5-(2,5-dimethoxyphenyl)-1-(4-methylthiazol-2-yl)-3-(thiophen-2-yl)-1H-pyrazole]
- MIC (E. coli (ATCC25922)): 125 µg/mL (≈ 324 µM)
- MIC (B. subtilis (ATCC 9372)): 125 µg/mL (≈ 324 µM)
- MIC (S. aureus (ATCC 25923)): 250 µg/mL (≈ 648 µM)
- ratio (MBC/MIC) ([1]; P. aeruginosa (ATCC 29853)): 8
- fold more efficient than amoxicillin ([1]; P. aeruginosa): approximately 32 fold
- MBC ([1]; ATCC29853): 125 µg/mL (≈ 324 µM)
- MIC ([1]; ATCC29853): 15.6 µg/mL (≈ 40.5 µM)
- MIC [1, 3]: 15.6 µg/mL (≈ 40.5 µM)
- MIC [2]: 7.81 µg/mL (≈ 20.3 µM)
- ratio (MFC/MIC) (C. albicans (ATCC 10231)): 8
- fungicidal or fungistatic behavior (C. albicans (ATCC 10231)): fungistatic
- MFC (C. albicans (ATCC 10231); ATCC10231): 250 µg/mL (≈ 648 µM)
- MIC (C. albicans (ATCC 10231); ATCC10231): 31.2 µg/mL (≈ 81.1 µM)
- MIC (C. albicans (ATCC 10231); [4]): 31.2 µg/mL (≈ 81.1 µM)

SMILES: c1ccc(-c2csc(N3N=C(c4cccs4)CC3c3cccs3)n2)cc1 (stereo not shown) [4a, 4,5-Dihydro-1-(4-phenylthiazol-2-yl)-3,5-di(thiophen-2-yl)-1H-pyrazole]
- MIC (E. coli (ATCC25922)): 125 µg/mL (≈ 318 µM)
- MIC (B. subtilis (ATCC 9372)): 15.6 µg/mL (≈ 39.7 µM)
- MIC (S. aureus (ATCC 25923)): 250 µg/mL (≈ 635 µM)
- ratio (MBC/MIC) ([1]; P. aeruginosa (ATCC 29853)): 4
- bactericidal or bacteriostatic effect ([1]; P. aeruginosa, MBC/MIC ≤ 4 = bactericidal): bactericidal
- MBC ([1]; ATCC29853): 500 µg/mL (≈ 1270 µM)
- MIC ([1]; ATCC29853): 125 µg/mL (≈ 318 µM)
- MIC [1, 3]: 125 µg/mL (≈ 318 µM)
- MIC [2]: 62.5 µg/mL (≈ 159 µM)
- ratio (MFC/MIC) (C. albicans (ATCC 10231)): 4
- MFC (C. albicans (ATCC 10231); ATCC10231): 500 µg/mL (≈ 1270 µM)
- MIC (C. albicans (ATCC 10231); ATCC10231): 125 µg/mL (≈ 318 µM)
- MIC (C. albicans (ATCC 10231); [4]): 125 µg/mL (≈ 318 µM)

SMILES: COc1ccc(OC)c(C2CC(c3cccs3)=NN2c2nc(-c3ccccc3)cs2)c1 (stereo not shown) [4b, 4,5-Dihydro-5-(2,5-dimethoxyphenyl)-1-(4-phenylthiazol-2-yl)-3-(thiophen-2-yl)-1H-pyrazole]
- MIC (E. coli (ATCC25922)): 125 µg/mL (≈ 279 µM)
- MIC (B. subtilis (ATCC 9372)): 250 µg/mL (≈ 559 µM)
- MIC (S. aureus (ATCC 25923)): 250 µg/mL (≈ 559 µM)
- ratio (MBC/MIC) ([1]; P. aeruginosa (ATCC 29853)): 16
- fold more efficient than amoxicillin ([1]; P. aeruginosa): approximately 32 fold
- MBC ([1]; ATCC29853): 250 µg/mL (≈ 559 µM)
- MIC ([1]; ATCC29853): 15.6 µg/mL (≈ 34.9 µM)
- MIC [1, 3]: 15.6 µg/mL (≈ 34.9 µM)
- MIC [2]: 31.2 µg/mL (≈ 69.8 µM)
- ratio (MFC/MIC) (C. albicans (ATCC 10231)): 8
- fungicidal or fungistatic behavior (C. albicans (ATCC 10231)): fungistatic
- MFC (C. albicans (ATCC 10231); ATCC10231): 500 µg/mL (≈ 1120 µM)
- MIC (C. albicans (ATCC 10231); ATCC10231): 62.5 µg/mL (≈ 140 µM)
- MIC (C. albicans (ATCC 10231); [4]): 62.5 µg/mL (≈ 140 µM)

SMILES: CCOC(=O)c1sc(N2N=C(c3cccs3)CC2c2cccs2)nc1C (stereo not shown) [5a, Ethyl 2-(4,5-dihydro-3,5-di(thiophen-2-yl)pyrazol-1-yl)-4-methylthiazole-5-carboxylate]
- MIC (E. coli (ATCC25922)): > 500 µg/mL
- MIC (B. subtilis (ATCC 9372)): 3.9 µg/mL (≈ 9.66 µM)
- MIC (S. aureus (ATCC 25923)): 62.5 µg/mL (≈ 155 µM)
- ratio (MBC/MIC) ([1]; P. aeruginosa (ATCC 29853)): >1
- MBC ([1]; ATCC29853): > 500 µg/mL
- MIC ([1]; ATCC29853): > 500 µg/mL
- MIC [1, 3]: > 500 µg/mL
- MIC [2]: 31.2 µg/mL (≈ 77.4 µM)
- ratio (MFC/MIC) (C. albicans (ATCC 10231)): 4
- MFC (C. albicans (ATCC 10231); ATCC10231): 500 µg/mL (≈ 1240 µM)
- MIC (C. albicans (ATCC 10231); ATCC10231): 125 µg/mL (≈ 310 µM)
- MIC (C. albicans (ATCC 10231); [4]): 125 µg/mL (≈ 310 µM)

SMILES: CC1(C)S[C@@H]2[C@H](NC(=O)[C@H](N)c3ccc(O)cc3)C(=O)N2[C@H]1C(=O)O [amoxicillin, reference compound]
- MIC (E. coli (ATCC25922)): 62.5 µg/mL (≈ 171 µM)
- MIC (B. subtilis (ATCC 9372)): 31.2 µg/mL (≈ 85.5 µM)
- MIC (S. aureus (ATCC 25923)): 7.8 µg/mL (≈ 21.3 µM)
- ratio (MBC/MIC) ([1]; P. aeruginosa (ATCC 29853)): >1
- Minimum Inhibitory Concentration ([1]; P. aeruginosa (ATCC 29853), Gram-negative, Table 1): >500 µg/mL
- MBC ([1]; ATCC29853): > 500 µg/mL
- MIC ([1]; ATCC29853): > 500 µg/mL
- MIC [1, 3]: > 500 µg/mL

SMILES: OC(Cn1cncn1)(Cn1cncn1)c1ccc(F)cc1F [fluconazole, reference compound]
- ratio (MFC/MIC) (C. albicans (ATCC 10231)): 1
- MFC (C. albicans (ATCC 10231); ATCC10231): 250 µg/mL (≈ 816 µM)
- MIC (C. albicans (ATCC 10231); ATCC10231): 250 µg/mL (≈ 816 µM)
- MIC (C. albicans (ATCC 10231); [4]): 250 µg/mL (≈ 816 µM)

SMILES: NNC(=O)c1ccncc1 [isoniazid, reference compound]
- MIC [2]: 0.12 µg/mL (≈ 0.875 µM)
